Consider eight compounds from patent publication US9073975B2, “Cyclic peptides, their preparation and their use as inhibitors of the platelet adhesion” (SANOFI, priority 2010, dated 2015).

Molecules are shown by their SMILES. Non-standard residues stand in square brackets, D forms with d. Residues, ends and D or L forms follow the SMILES beside them. Orn = NCCC[C@H](N)C(=O)O; Dab = NCC[C@H](N)C(=O)O; Nva = CCC[C@H](N)C(=O)O; Dap = NC[C@H](N)C(=O)O; Ahp = NCCCCCCC(=O)O

The target of the experiment is T1, recombinant human vWF-A1 domain (Homo sapiens, UniProt P07359).
T1 construct: whole blood drawn from voluntary donors; made in house; host or cells: E. coli (vWF-A1); washed platelets from human donor blood (GPIb, endogenous)
As to the kind of experiment: Static human platelet adhesion to recombinant human vWF-A1 domain. The format is cell-based. As to conditions: washed calcein AM labeled human platelets, static conditions, 1.5 h adhesion; read-out: Activity (IC50 for inhibition of the binding of platelets to vWF A1 domain). How it is done:
The activity of compounds of the formula I can be shown by procedures known in the art, for example by determining their inhibition of the binding of platelets to vWF A1 domain in an appropriate assay. To this end, assay plates can be coated with vWF-A1 domain. […] Then fluorescence-labeled thrombocytes are added and incubated for 90 minutes. In a complex washing procedure all non-bound thrombocytes are removed and the plates are measured, for example in a laser-based reader Acumen Explorer or a bulk reader like Spectramax. […] To assess the effect of compounds on the interaction of the GPIb complex on platelets with vWF, an assay system was used measuring binding of human platelets to recombinant human vWF-A1 domain under static conditions in the presence and absence of the compounds. […] Platelet rich plasma was carefully removed, transferred to a fresh container and spun down for 15 min at 120 g. Platelet rich plasma was carefully transferred again to fresh containers, PGE1 (0.5 μg/ml, Sigma) was added and the suspension was allowed to rest for 5 min. This was followed by another centrifugation step for 15 min at 360 g. The supernatant was discarded and the cell pellets were carefully resuspended in tyrode buffer (NaCl, 137 mM (Sigma S-3014); KCl, 2.7 mM (Sigma P-9541); NaHCO3,12 mM ([…] 31437); NaH2PO4×2H2O, 0.36 mM (Merck 6345); […] After 5 min of resting the suspension was spun down for 15 min at 300 g. The supernatant was discarded and the pellets were carefully resuspended in TBS buffer (Tris-HCl, 50 mM (Fluka 93371); NaCl, 120 mM (Sigma S-3014); KCl, 2.7 mM (Sigma P-9541); CaCl2, 0.05 mM (Sigma C-3306); MgCl2×6 H2O, 2 mM (Sigma M-2670); […] The platelet count was adjusted to 2×10^5 cells/μl, and the suspensions from individual donors were pooled at this stage. The platelets were allowed to rest for 30 min at room temperature before calcein AM (2.5 μM per 2×10^5 cells/μl (Molecular Probes C-3099)) was added. This was followed by 15 min incubation in the dark. Cells were diluted to 5×10^4 cells/μl and ReoPro (3 μg/ml (Centocor B. V., Leiden, N L)) was added, followed by a 10 min incubation period in the dark before adding the platelets to the assay plates. 96 well plates (Greiner hb, black, clear bottom, F, 655097) were coated with human recombinant vWF-A1 domain (1.5 μg/well, AA 475-706, expressed in E. coli) in Tris buffer (pH 7.4; Tris-HCl, 25 mM; NaCl, 150 mM) and incubated for 1 h at room temperature. After washing the wells 3× with TBS, blocking buffer (TBS with 5% BSA) was added followed by an incubation for 1 h. The wells were washed again 3× with TBS before 200 μl TBS were added to each well, preventing them from drying out. TBS was flicked out and serial dilutions of the test compound were added. The washed and calcein AM labeled thrombocytes were added to the wells (2.5×10^6 cells/well). Following an adhesion period of 1.5 h in the dark the wells were washed 3× with TBS. Measurement of fluorescence per well was performed in a SpectraMax M5 reader (Molecular Devices). From the raw data % inhibition and IC50 values were calculated.

T1 sequence (P07359 17-652): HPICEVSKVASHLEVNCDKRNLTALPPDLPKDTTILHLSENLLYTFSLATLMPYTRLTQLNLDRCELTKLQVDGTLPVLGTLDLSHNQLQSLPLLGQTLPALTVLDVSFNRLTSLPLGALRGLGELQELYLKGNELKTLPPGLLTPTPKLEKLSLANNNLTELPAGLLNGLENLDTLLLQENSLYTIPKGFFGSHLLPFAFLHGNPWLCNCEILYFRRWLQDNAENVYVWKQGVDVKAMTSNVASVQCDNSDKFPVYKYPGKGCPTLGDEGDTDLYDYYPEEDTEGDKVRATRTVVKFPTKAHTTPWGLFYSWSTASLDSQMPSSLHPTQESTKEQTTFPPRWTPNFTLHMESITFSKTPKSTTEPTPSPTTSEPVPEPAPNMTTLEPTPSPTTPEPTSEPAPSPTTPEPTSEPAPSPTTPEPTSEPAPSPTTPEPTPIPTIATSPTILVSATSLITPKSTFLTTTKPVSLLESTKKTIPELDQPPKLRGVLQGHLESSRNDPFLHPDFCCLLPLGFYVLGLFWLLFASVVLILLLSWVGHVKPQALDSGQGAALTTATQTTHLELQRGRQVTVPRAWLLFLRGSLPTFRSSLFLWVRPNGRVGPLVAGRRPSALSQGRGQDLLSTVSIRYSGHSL
T1 sequence (P13224 26-206 partner): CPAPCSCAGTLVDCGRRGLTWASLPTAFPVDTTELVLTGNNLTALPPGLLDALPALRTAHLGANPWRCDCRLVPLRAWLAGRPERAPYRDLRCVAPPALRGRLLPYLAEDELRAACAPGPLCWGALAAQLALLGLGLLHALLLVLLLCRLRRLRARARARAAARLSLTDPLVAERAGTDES
T1 sequence (P14770 17-177 partner): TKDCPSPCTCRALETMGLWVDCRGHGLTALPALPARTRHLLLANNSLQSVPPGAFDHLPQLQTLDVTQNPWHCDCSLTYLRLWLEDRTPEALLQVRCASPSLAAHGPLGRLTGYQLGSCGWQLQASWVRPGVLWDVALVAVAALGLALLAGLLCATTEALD

The IC50 is the concentration at which inhibition is half-maximal. In the case of `CSCC[C@@H]1NC(=O)[C@H](CCCNC(=N)N)NC(=O)[C@H](CCC(=O)O)NC(=O)[C@H](CC(N)=O)NC(=O)CCCCCCNC(=O)[C@H](CC(C)C)NC(=O)[C@H](CC(N)=O)NC(=O)[C@H](Cc2c[nH]cn2)NC(=O)[C@H](CC(C)C)NC(=O)[C@H](C)NC1=O` [Example 22, Cyclo[Leu-His-Asn-Leu-NH—(CH2)6—CO-Asn-Glu-Arg-Met-Ala]] (cyclo(ALHNL[Ahp]NERM)), the IC50 is < 1000 nM.
As to `CSCC[C@@H]1NC(=O)[C@H](CCCNC(=N)N)NC(=O)[C@H](CCC(=O)O)NC(=O)[C@H](CCN)NC(=O)CCCCCCNC(=O)[C@H](CC(C)C)NC(=O)[C@H](CC(N)=O)NC(=O)[C@H](Cc2c[nH]cn2)NC(=O)[C@H](CC(C)C)NC(=O)[C@H](C)NC1=O` [Example 24, Cyclo[Leu-His-Asn-Leu-NH—(CH2)6—CO-Dbu-Glu-Arg-Met-Ala]] (cyclo(ALHNL[Ahp][Dab]ERM)), the half-inhibitory concentration (IC50) was < 1000 nM.
Turning to `CSCC[C@@H]1NC(=O)[C@H](CCCNC(=N)N)NC(=O)[C@H](CCC(=O)O)NC(=O)[C@H](CCC(N)=O)NC(=O)CCCCCCNC(=O)[C@H](CC(C)C)NC(=O)[C@H](CC(N)=O)NC(=O)[C@H](Cc2c[nH]cn2)NC(=O)[C@H](CC(C)C)NC(=O)[C@H](C)NC1=O` [Example 25, Cyclo[Leu-His-Asn-Leu-NH—(CH2)6—CO-Gln-Glu-Arg-Met-Ala]] (cyclo(ALHNL[Ahp]QERM)), the IC50 was < 1000 nM.
The value for `CSCC[C@@H]1NC(=O)[C@H](CCCN)NC(=O)[C@H](CCC(=O)O)NC(=O)[C@H]([C@@H](C)O)NC(=O)CCCCCCNC(=O)[C@H](CC(C)C)NC(=O)[C@H](CC(N)=O)NC(=O)[C@H](Cc2c[nH]cn2)NC(=O)[C@H](CC(C)C)NC(=O)[C@H](C)NC1=O` [Example 28, Cyclo[Leu-His-Asn-Leu-NH—(CH2)6—CO-Thr-Glu-Orn-Met-Ala]] (cyclo(ALHNL[Ahp]TE[Orn]M)) was < 1000 nM; that for `CSCC[C@@H]1NC(=O)[C@H](CN)NC(=O)[C@H](CCC(=O)O)NC(=O)[C@H]([C@@H](C)O)NC(=O)CCCCCCNC(=O)[C@H](CC(C)C)NC(=O)[C@H](CC(N)=O)NC(=O)[C@H](Cc2c[nH]cn2)NC(=O)[C@H](CC(C)C)NC(=O)[C@H](C)NC1=O` [Example 29, Cyclo[Leu-His-Asn-Leu-NH—(CH2)6—CO-Thr-Glu-Dpr-Met-Ala]] (cyclo(ALHNL[Ahp]TE[Dap]M)) was 1000 to 10000 nM.
As for `CSCC[C@@H]1NC(=O)[C@H](CCCNC(=N)N)NC(=O)[C@H](CCC(=O)O)NC(=O)[C@H]([C@@H](C)O)NC(=O)CCCCCCNC(=O)[C@H](CC(C)C)NC(=O)[C@H](CC(N)=O)NC(=O)[C@H](Cc2c[nH]cn2)NC(=O)[C@H](CC(C)C)NC(=O)[C@H](CCCNC(=N)N)NC1=O` [Example 30, Cyclo[Leu-His-Asn-Leu-NH—(CH2)6—CO-Thr-Glu-Arg-Met-Arg]] (cyclo([Ahp]TERMRLHNL)), the IC50 is 1000 to 10000 nM.
Turning to `CCC[C@@H]1NC(=O)[C@H](CCSC)NC(=O)[C@H](CCCNC(=N)N)NC(=O)[C@H](CCC(=O)O)NC(=O)[C@H]([C@@H](C)O)NC(=O)CCCCCCNC(=O)[C@H](CC(C)C)NC(=O)[C@H](CC(N)=O)NC(=O)[C@H](Cc2c[nH]cn2)NC(=O)[C@H](CC(C)C)NC1=O` [Example 31, Cyclo[Leu-His-Asn-Leu-NH—(CH2)6—CO-Thr-Glu-Arg-Met-Nva]] (cyclo([Ahp]TERM[Nva]LHNL)), the IC50 was 1000 to 10000 nM.
Regarding `CSCC[C@@H]1NC(=O)[C@H](CCCNC(=N)N)NC(=O)[C@H](CCC(=O)O)NC(=O)[C@H]([C@@H](C)O)NC(=O)CCCCCCNC(=O)[C@H](CC(C)C)NC(=O)[C@H](CC(N)=O)NC(=O)[C@H](Cc2c[nH]cn2)NC(=O)[C@H](CC(C)C)NC(=O)[C@H](CN)NC1=O` [Example 32, Cyclo[Leu-His-Asn-Leu-NH—(CH2)6—CO-Thr-Glu-Arg-Met-Dpr]] (cyclo([Ahp]TERM[Dap]LHNL)), the IC50 was < 1000 nM.
